Test results as given in patent publication US10443082B2, “Concentration gradient test reagent kit and testing method for use in bacterial/fungal drug susceptibility testing” (XINTRUM PHARMACEUTICALS, LTD, priority 2014, dated 2019).
Values after ≈ are worked out from the molar mass of the structure shown. Values belong to the compound of their own block, whether it stands above or below them.

How the values were obtained:
Type in all cases: cell-based
Streptococcus pneumoniae [1] = test: MIC assay, tube broth dilution method; details: read-out: MIC, Concentration (tube broth dilution method)
From the text: (§1) This embodiment still uses a drug container with 12 round cells, and each round cell has internal dimensions of 4 mm×6 mm (bottom's radius×height). However, the experimental strains in use are Streptococcus pneumoniae. […] The bacterial lawn on the drug-free control agar blocks is expected to grow well; and • 8) performing an MIC assay on the test strains with the tube broth dilution method.

Streptococcus pneumoniae [2] = test: MIC assay, concentration gradient agar strip method
From the text: (§2) Combination of the pre-fabricated antimicrobial drug and pre-fabricated culture medium to form a test strip unit: the films are removed from the bottom and top of the culture medium container, and the cells of the culture medium container can be inserted into the corresponding cells of the drug container. Then, the drug container is covered with a lid, and the pressure created in the process causes the antimicrobial drug at the bottoms of the cells to come into contact with the solid culture medium, and therefore dissolved in the agar culture medium to reach a specific concentration. To use the solid culture medium, a bacterial culture solution can be applied on the upper surface of the solid culture medium in each cell of the culture medium container. Then the culture medium container is covered with a lid, and then kept at 35° C. for 16-20 hours before the culture result is visually checked. When the drug concentration is higher than the MIC for the bacteria, no bacteria is observed on the surface of the gel. When the drug concentration is lower than the MIC, the bacteria grows on the surface of the culture medium and eventually develops a bacterial colony thereon. The lowest drug concentration at which no bacteria is observed on the gel surface is considered as the MIC of the antimicrobial drug for the strain under test.
as §1

Klebsiella pneumoniae [3] = test: as above
From the text: as §2
(§3) A concentration gradient measurement method for use in bacterial/fungal drug susceptibility testing is provided. […] The bacterial lawn on the drug-free control agar blocks is expected to grow well; and • 8) in the meantime, performing an MIC assay on the test strains with tube broth dilution method.

Klebsiella oxytoca [4] = test: as above
From the text: as §2, §3

Escherichia coli [5] = test: as above
From the text: as §2, §3

Enterobacter cloacae [6] = test: as above
From the text: as §2, §3

Proteus mirabilis [7] = test: as above; details: Strain No. 27 Proteus mirabilis
From the text: as §2, §3

Klebsiella pneumoniae [8] = test: MIC assay, tube broth dilution method; details: read-out: MIC, Concentration (tube broth dilution method)
From the text: as §3

Klebsiella oxytoca [9] = test: MIC assay, tube broth dilution method
From the text: as §3

Escherichia coli [10] = test: MIC assay, tube broth dilution method; details: read-out: MIC, Concentration (tube broth dilution method)
From the text: as §3

Enterobacter cloacae [11] = test: MIC assay, tube broth dilution method
From the text: as §3

Proteus mirabilis [12] = test: MIC assay, tube broth dilution method; details: Strain No. 27 Proteus mirabilis; read-out: MIC, Concentration (tube broth dilution method)
From the text: as §3

[13] = Strain No. 1 Streptococcus pneumoniae
[14] = Strain No. 2 Streptococcus pneumoniae
[15] = Strain No. 3 Streptococcus pneumoniae
[16] = Strain No. 4 Streptococcus pneumoniae
[17] = Strain No. 5 Streptococcus pneumoniae
[18] = Strain No. 6 Streptococcus pneumoniae
[19] = Strain No. 7 Streptococcus pneumoniae
[20] = Strain No. 8 Streptococcus pneumoniae
[21] = Strain No. 9 Streptococcus pneumoniae
[22] = Strain No. 10 Streptococcus pneumoniae
[23] = Strain No. 11 Streptococcus pneumoniae
[24] = Strain No. 12 Streptococcus pneumoniae
[25] = Strain No. 13 Streptococcus pneumoniae
[26] = Strain No. 14 Streptococcus pneumoniae
[27] = Strain No. 15 Streptococcus pneumoniae
[28] = Strain No. 16 Streptococcus pneumoniae
[29] = Strain No. 17 Streptococcus pneumoniae
[30] = Strain No. 18 Streptococcus pneumoniae
[31] = Strain No. 19 Streptococcus pneumoniae
[32] = Strain No. 20 Streptococcus pneumoniae
[33] = Strain No. 1 Klebsiella pneumoniae
[34] = Strain No. 2 Klebsiella pneumoniae
[35] = Strain No. 3 Klebsiella pneumoniae
[36] = Strain No. 4 Klebsiella pneumoniae
[37] = Strain No. 5 Klebsiella pneumoniae
[38] = Strain No. 6 Klebsiella pneumoniae
[39] = Strain No. 7 Klebsiella pneumoniae
[40] = Strain No. 8 Klebsiella pneumoniae
[41] = Strain No. 18 Klebsiella pneumoniae
[42] = Strain No. 21 Klebsiella pneumoniae
[43] = Strain No. 24 Klebsiella pneumoniae
[44] = Strain No. 25 Klebsiella oxytoca
[45] = Strain No. 29 Enterobacter cloacae

MIC (Streptococcus pneumoniae [1]; [13]): 0.12 µg/mL (≈ 0.328 µM) | MIC (Streptococcus pneumoniae [1]; [14]): 0.12 µg/mL (≈ 0.328 µM) | MIC (Streptococcus pneumoniae [1]; [15]): 0.12 µg/mL (≈ 0.328 µM) | MIC (Streptococcus pneumoniae [1]; [16]): 0.25 µg/mL (≈ 0.684 µM) | MIC (Streptococcus pneumoniae [1]; [17]): 0.5 µg/mL (≈ 1.37 µM) | MIC (Streptococcus pneumoniae [1]; [18]): 0.12 µg/mL (≈ 0.328 µM) | MIC (Streptococcus pneumoniae [1]; [19]): 0.25 µg/mL (≈ 0.684 µM) | MIC (Streptococcus pneumoniae [1]; [20]): 0.5 µg/mL (≈ 1.37 µM) | MIC (Streptococcus pneumoniae [1]; [21]): 0.25 µg/mL (≈ 0.684 µM) | MIC (Streptococcus pneumoniae [1]; [22]): 2 µg/mL (≈ 5.47 µM) | MIC (Streptococcus pneumoniae [1]; [23]): 0.12 µg/mL (≈ 0.328 µM) | MIC (Streptococcus pneumoniae [1]; [24]): 0.06 µg/mL (≈ 0.164 µM) | MIC (Streptococcus pneumoniae [1]; [25]): 0.12 µg/mL (≈ 0.328 µM) | MIC (Streptococcus pneumoniae [1]; [26]): 2 µg/mL (≈ 5.47 µM) | MIC (Streptococcus pneumoniae [1]; [27]): 0.12 µg/mL (≈ 0.328 µM) | MIC (Streptococcus pneumoniae [1]; [28]): 0.12 µg/mL (≈ 0.328 µM) | MIC (Streptococcus pneumoniae [1]; [29]): 1 µg/mL (≈ 2.74 µM) | MIC (Streptococcus pneumoniae [1]; [30]): 1 µg/mL (≈ 2.74 µM) | MIC (Streptococcus pneumoniae [1]; [31]): 0.12 µg/mL (≈ 0.328 µM) | MIC (Streptococcus pneumoniae [1]; [32]): 0.12 µg/mL (≈ 0.328 µM) | MIC (Streptococcus pneumoniae [2]; [13]): 0.12 µg/mL | MIC (Streptococcus pneumoniae [2]; [14]): 0.12 µg/mL | MIC (Streptococcus pneumoniae [2]; [15]): 0.25 µg/mL | MIC (Streptococcus pneumoniae [2]; [16]): 0.25 µg/mL | MIC (Streptococcus pneumoniae [2]; [17]): 0.5 µg/mL | MIC (Streptococcus pneumoniae [2]; [18]): 0.12 µg/mL | MIC (Streptococcus pneumoniae [2]; [19]): 0.25 µg/mL | MIC (Streptococcus pneumoniae [2]; [20]): 1 µg/mL | MIC (Streptococcus pneumoniae [2]; [21]): 0.25 µg/mL | MIC (Streptococcus pneumoniae [2]; [22]): 2 µg/mL | MIC (Streptococcus pneumoniae [2]; [23]): 0.12 µg/mL | MIC (Streptococcus pneumoniae [2]; [24]): 0.06 µg/mL | MIC (Streptococcus pneumoniae [2]; [25]): 0.06 µg/mL | MIC (Streptococcus pneumoniae [2]; [26]): 2 µg/mL | MIC (Streptococcus pneumoniae [2]; [27]): 0.12 µg/mL | MIC (Streptococcus pneumoniae [2]; [28]): 0.12 µg/mL | MIC (Streptococcus pneumoniae [2]; [29]): 1 µg/mL | MIC (Streptococcus pneumoniae [2]; [30]): 0.5 µg/mL | MIC (Streptococcus pneumoniae [2]; [31]): 0.25 µg/mL | MIC (Streptococcus pneumoniae [2]; [32]): 0.12 µg/mL
Compound: CC1(C)S[C@@H]2[C@H](NC(=O)[C@H](N)c3ccc(O)cc3)C(=O)N2[C@H]1C(=O)O [Amoxicillin]

MIC (Klebsiella pneumoniae [3]; [33]): 4 µg/mL | MIC (Klebsiella pneumoniae [3]; [34]): 4 µg/mL | MIC (Klebsiella pneumoniae [3]; [35]): 4 µg/mL | MIC (Klebsiella pneumoniae [3]; [36]): 2 µg/mL | MIC (Klebsiella pneumoniae [3]; [37]): 2 µg/mL | MIC (Klebsiella pneumoniae [3]; [38]): 4 µg/mL | MIC (Klebsiella pneumoniae [3]; [39]): 8 µg/mL | MIC (Klebsiella pneumoniae [3]; [40]): 4 µg/mL | MIC (Klebsiella pneumoniae [3]; [41]): 16 µg/mL | MIC (Klebsiella pneumoniae [3]; [42]): 8 µg/mL | MIC (Klebsiella pneumoniae [3]; [43]): 4 µg/mL | MIC (Klebsiella oxytoca [4]; Strain No. 22 Klebsiella oxytoca): 8 µg/mL | MIC, Concentration (gradient agar strip method) (Klebsiella oxytoca [4]; [44]): 8.0 µg/mL | MIC (Escherichia coli [5]; Strain No. 9 Escherichia coli): 8 µg/mL | MIC (Escherichia coli [5]; Strain No. 10 Escherichia coli): 1 µg/mL | MIC (Escherichia coli [5]; Strain No. 11 Escherichia coli): 2 µg/mL | MIC (Escherichia coli [5]; Strain No. 12 Escherichia coli): 4 µg/mL | MIC (Escherichia coli [5]; Strain No. 13 Escherichia coli): 4 µg/mL | MIC (Escherichia coli [5]; Strain No. 14 Escherichia coli): 8 µg/mL | MIC (Escherichia coli [5]; Strain No. 15 Escherichia coli): 2 µg/mL | MIC (Escherichia coli [5]; Strain No. 16 Escherichia coli): 4 µg/mL | MIC (Escherichia coli [5]; Strain No. 17 Escherichia coli): 4 µg/mL | MIC (Escherichia coli [5]; Strain No. 19 Escherichia coli): 16 µg/mL | MIC (Escherichia coli [5]; Strain No. 20 Escherichia coli): 4 µg/mL | MIC (Escherichia coli [5]; Strain No. 23 Escherichia coli): 8 µg/mL | MIC (Escherichia coli [5]; Strain No. 26 Escherichia coli): 4 µg/mL | MIC (Escherichia coli [5]; Strain No. 30 Escherichia coli): 8 µg/mL | MIC (Enterobacter cloacae [6]; Strain No. 28 Enterobacter cloacae): 16 µg/mL | MIC, Concentration (gradient agar strip method) (Enterobacter cloacae [6]; [45]): 16.0 µg/mL | MIC (Proteus mirabilis [7]): 8 µg/mL | MIC (Klebsiella pneumoniae [8]; [33]): 4 µg/mL (≈ 8.78 µM) | MIC (Klebsiella pneumoniae [8]; [34]): 4 µg/mL (≈ 8.78 µM) | MIC (Klebsiella pneumoniae [8]; [35]): 2 µg/mL (≈ 4.39 µM) | MIC (Klebsiella pneumoniae [8]; [36]): 2 µg/mL (≈ 4.39 µM) | MIC (Klebsiella pneumoniae [8]; [37]): 2 µg/mL (≈ 4.39 µM) | MIC (Klebsiella pneumoniae [8]; [38]): 4 µg/mL (≈ 8.78 µM) | MIC (Klebsiella pneumoniae [8]; [39]): 8 µg/mL (≈ 17.6 µM) | MIC (Klebsiella pneumoniae [8]; [40]): 4 µg/mL (≈ 8.78 µM) | MIC (Klebsiella pneumoniae [8]; [41]): 16 µg/mL (≈ 35.1 µM) | MIC (Klebsiella pneumoniae [8]; [42]): 8 µg/mL (≈ 17.6 µM) | MIC (Klebsiella pneumoniae [8]; [43]): 4 µg/mL (≈ 8.78 µM) | MIC (Klebsiella oxytoca [9]; Strain No. 22 Klebsiella oxytoca, read-out: MIC, Concentration (tube broth dilution method)): 8 µg/mL (≈ 17.6 µM) | MIC, Concentration (tube broth dilution method) (Klebsiella oxytoca [9]; [44]): 8.0 µg/mL (≈ 17.6 µM) | MIC (Escherichia coli [10]; Strain No. 9 Escherichia coli): 8 µg/mL (≈ 17.6 µM) | MIC (Escherichia coli [10]; Strain No. 10 Escherichia coli): 1 µg/mL (≈ 2.2 µM) | MIC (Escherichia coli [10]; Strain No. 11 Escherichia coli): 4 µg/mL (≈ 8.78 µM) | MIC (Escherichia coli [10]; Strain No. 12 Escherichia coli): 4 µg/mL (≈ 8.78 µM) | MIC (Escherichia coli [10]; Strain No. 13 Escherichia coli): 4 µg/mL (≈ 8.78 µM) | MIC (Escherichia coli [10]; Strain No. 14 Escherichia coli): 8 µg/mL (≈ 17.6 µM) | MIC (Escherichia coli [10]; Strain No. 15 Escherichia coli): 4 µg/mL (≈ 8.78 µM) | MIC (Escherichia coli [10]; Strain No. 16 Escherichia coli): 4 µg/mL (≈ 8.78 µM) | MIC (Escherichia coli [10]; Strain No. 17 Escherichia coli): 4 µg/mL (≈ 8.78 µM) | MIC (Escherichia coli [10]; Strain No. 19 Escherichia coli): 16 µg/mL (≈ 35.1 µM) | MIC (Escherichia coli [10]; Strain No. 20 Escherichia coli): 4 µg/mL (≈ 8.78 µM) | MIC (Escherichia coli [10]; Strain No. 23 Escherichia coli): 8 µg/mL (≈ 17.6 µM) | MIC (Escherichia coli [10]; Strain No. 26 Escherichia coli): 4 µg/mL (≈ 8.78 µM) | MIC (Escherichia coli [10]; Strain No. 30 Escherichia coli): 8 µg/mL (≈ 17.6 µM) | MIC (Enterobacter cloacae [11]; Strain No. 28 Enterobacter cloacae, read-out: MIC, Concentration (tube broth dilution method)): 16 µg/mL (≈ 35.1 µM) | MIC, Concentration (tube broth dilution method) (Enterobacter cloacae [11]; [45]): 16.0 µg/mL (≈ 35.1 µM) | MIC (Proteus mirabilis [12]): 4 µg/mL (≈ 8.78 µM)
Compound: CO/N=C(\C(=O)N[C@@H]1C(=O)N2C(C(=O)O)=C(COC(C)=O)CS[C@H]12)c1csc(N)n1 [Cefotaxime]
